Experimental data as given in ChEMBL document CHEMBL3044801, “Synthesis and antiprotozoal activity of 1,2,3,4-tetrahydro-2-thioxopyrimidine analogs of combretastatin A-4” (Med Chem Res, 2011).
Active and inactive are the calls of the source. No cut-off for these calls is given here.

Columns and labels:
[1] = test system: Plasmodium falciparum; assay: Antiprotozoan activity against Plasmodium falciparum assessed as inhibition of [3H]hypoxanthine incorporation incubated for 24 hr prior to [3H]hypoxanthine addition measured after 18 hr by liquid scintillation counting; type: functional, organism-based
[2] = test system: Trypanosoma lewisi; assay: Antiprotozoan activity against Trypanosoma lewisi after 72 hr by MTT assay; type: functional, organism-based
[3] = test system: Leishmania tarentolae; assay: Antiprotozoan activity against Leishmania tarentolae after 72 hr by MTT assay; type: functional, organism-based
[4] = test system: B16; assay: Cytotoxicity against Mus musculus (mouse) B16 cells after 72 hr by MTT assay; type: cell-based; details: B16, 72 h
[5] = test system: L1210; assay: Cytotoxicity against Mus musculus (mouse) L1210 cells after 72 hr by MTT assay; type: cell-based; details: L1210, 72 h
[6] = Selectivity index, ratio of IC50 for mouse B16 cells to IC50 for Leishmania tarentolae; type: toxicity, cell-based; details: B16 cells versus Leishmania tarentolae, read-out: Ratio IC50
[7] = Selectivity index, ratio of IC50 for mouse L1210 cells to IC50 for Giardia lamblia
[8] = Selectivity index, ratio of IC50 for mouse L1210 cells to IC50 for Leishmania tarentolae; type: toxicity, cell-based; details: L1210 cells versus Leishmania tarentolae, read-out: Ratio IC50
[9] = test system: Giardia intestinalis; assay: Antiprotozoan activity against Giardia intestinalis after 72 hr by MTT assay; type: functional, organism-based; details: Giardia duodenalis
[10] = Selectivity index, ratio of IC50 for mouse B16 cells to IC50 for Trypanosoma lewisi; type: toxicity, cell-based; details: B16 cells versus Trypanosoma lewisi, read-out: Ratio IC50
[11] = Selectivity index, ratio of IC50 for mouse B16 cells to IC50 for Giardia lamblia
[12] = Selectivity index, ratio of IC50 for mouse L1210 cells to IC50 for Trypanosoma lewisi; type: toxicity, cell-based; details: L1210 cells versus Trypanosoma lewisi, read-out: Ratio IC50
[13] = test system: Giardia intestinalis; assay: Antiprotozoan activity against Giardia intestinalis assessed as decrease in viability at 12.1 to 21.5 uM after 72 hr by microscopic analysis; type: functional, organism-based; details: Giardia duodenalis

IC50 [1] [µM] | IC50 [2] [µM] | SMILES | IC50 [3] [µM] | IC50 [4] [µM] | IC50 [5] [µM] | selectivity ratio [6] | Ratio IC50 [7] | selectivity ratio [8] | IC50 [9] [µM] | selectivity ratio [10] | Ratio IC50 [11] | selectivity ratio [12] | Activity [13]
25 | 15.2 | COc1ccc(C2=CC(c3ccc(OC)cc3)NC(=S)N2)cc1 (stereo not drawn) | 17.8 | > 100 | > 100 |  |  |  |  |  |  |  | 
 | 50 | COc1cc(C2=CC(c3ccc([N+](=O)[O-])cc3)NC(=S)N2)cc(OC)c1OC (stereo not drawn) | 13.7 |  |  | 8 | 4 | 8 | 21 | 2 | 4 | 2 | 
14.5 | 17.9 | COc1ccc(C2C=C(c3cc(OC)c(OC)c(OC)c3)NC(=S)N2)cc1 (stereo not drawn) | 12.5 | 36 | 41 |  |  |  | 22.3 |  |  |  | 
 | 52.1 | COc1ccc(C2C=C(c3cc(OC)c(OC)c(OC)c3)NC(=S)N2)cc1OC (stereo not drawn) | 36.4 |  |  |  |  |  | 22.7 |  |  |  | 
17.3 | 25 | COc1cc(OC)c(C2C=C(c3cc(OC)ccc3OC)NC(=S)N2)c(OC)c1 (stereo not drawn) | 10.4 |  |  |  |  |  | 33.8 |  |  |  | 
 | 39.5 | COc1ccc(C2C=C(c3cc(OC)c(OC)c(OC)c3)NC(=S)N2)cc1[N+](=O)[O-] (stereo not drawn) | 12.5 |  |  | 8 | 4 | 8 | 24.3 | 2 | 4 | 2 | 
14.6 | 13.4 | COc1ccc(C2=CC(c3c(OC)cc(OC)cc3OC)NC(=S)N2)cc1 (stereo not drawn) | 25.1 | 25 | 85 |  |  |  | > 100 |  |  |  | 
 | 29.3 | COc1cc(C2=CC(c3cc(OC)c(OC)c(OC)c3)NC(=S)N2)cc(OC)c1OC (stereo not drawn) | 46.6 |  |  |  |  |  | 24.8 |  |  |  | 
69.4 | 16.5 | COc1ccc(C2C=C(c3cc(OC)ccc3OC)NC(=S)N2)cc1 (stereo not drawn) | 11.4 | 80 | 87 |  |  |  | > 100 |  |  |  | 
 | 49.2 | COc1ccc(C2C=C(c3cc(OC)c(OC)c(OC)c3)NC(=S)N2)cc1O (stereo not drawn) | 12.1 |  |  |  |  |  | 21.5 |  |  |  | Active
 | 33.3 | COc1ccc(OC)c(C2=CC(c3ccc(OC)c([N+](=O)[O-])c3)NC(=S)N2)c1 (stereo not drawn) | 21.1 |  |  |  |  |  | 57.8 |  |  |  | 
13.3 | 15.7 | COc1ccc(OC)c(C2=CC(c3cc(OC)c(OC)c(OC)c3)NC(=S)N2)c1 (stereo not drawn) | 16.8 | 0.5 | 6 |  |  |  | > 100 |  |  |  | 
 | 48.4 | COc1ccc(OC)c(C2C=C(c3cc(OC)c(OC)c(OC)c3)NC(=S)N2)c1 (stereo not drawn) | 30.3 |  |  |  |  |  | 23.5 |  |  |  | 
 | 24.3 | COc1cccc(C2C=C(c3cc(OC)c(OC)c(OC)c3)NC(=S)N2)c1 (stereo not drawn) | 19.4 |  |  |  |  |  | 40.4 |  |  |  | 
31 | 25.8 | COc1ccc(C2=CC(c3ccc(OC)c(OC)c3)NC(S)=N2)cc1 (stereo not drawn) | 27.2 | > 100 | > 100 |  |  |  | > 100 |  |  |  | 
 | 29.6 | COc1cc(OC)c(C2C=C(c3cc(OC)c(OC)c(OC)c3)NC(=S)N2)c(OC)c1 (stereo not drawn) | 46.6 |  |  |  |  |  | 20.3 |  |  |  | 
27.9 | 27.3 | COc1ccc(OC)c(C2=CC(c3cc(OC)ccc3OC)NC(=S)N2)c1 (stereo not drawn) | 18 | > 100 | > 100 |  |  |  | > 100 |  |  |  | 
 | 27 | COc1cc(C2=CC(c3ccc(Cl)cc3)NC(=S)N2)cc(OC)c1OC (stereo not drawn) | 10.2 |  |  |  |  |  | 46.7 |  |  |  | 
